Results on nine compounds are retold here after patent US20110105504A1, “Inhibitors Of 11beta-Hydroxysteroid Dehydrogenase Type 1” (Vitae Pharmaceuticals ,Inc., priority 2008, published 2011).

A value given as a limit tells only on which side of the number the result lay.

The term IC50 denotes the point on the concentration scale where inhibition reaches its midpoint. Broadly, the inhibition is the change of the read-out against control, counted positive when it falls. High values mean a strong effect, low ones a weak effect.

This assay deals with T1, human 11β-HSD1 (Homo sapiens, UniProt P28845).
T1 construct: expressed in transfected cells; host or cells: CHO cells (microsomes isolated from them)
The assay can be described thus: Inhibition of microsomal preparation of 11β-HSD1 (SPA, [3H]cortisone to [3H]cortisol), Biological Test Example 1. Particulars: microsomes from CHO cells overexpressing human 11β-HSD1; for Average % inhibition at 100 nM / inhibition at 0.1 µM: 100 nM compound; for Average % inhibition at 100 nM: 0.1 µM; for IC50: read-out: IC50 Range. It counts as biochemical. The procedure: The inhibition of microsomal preparation of 11β-HSD1 by compounds of the invention was measured essentially as previously described (K. Solly, S. S. Mundt, H. J. Zokian, G. J. Ding, A. Hermanowski-Vosatka, B. Strulovici, and W. Zheng, High-Throughput Screening of 11-Beta-Hydroxysteroid Dehydrogenase Type 1 in Scintillation Proximity Assay Format. Assay Drug Dev Technol 3 (2005) 377-384). All reactions were carried out at room temperature in 96 well clear flexible PET Microbeta plates (PerkinElmer). The assay begins by dispensing 49 p. 1 of substrate solution (50 mM HEPES, pH 7.4, 100 mM KCl, 5 mM NaCl, 2 mM MgCl2, 2 mM NADPH and 160 nM [^3H]cortisone (1 Ci/mmol)) and mixing in 1 μL of the test compounds in DMSO previously diluted in half-log increments (8 points) starting at 0.1 mM. After a 10 minute pre-incubation, 50 μL of enzyme solution containing microsomes isolated from CHO cells overexpressing human 11β-HSD1 (10-20 μg/ml of total protein) was added, and the plates were incubated for 90 minutes at room temperature. The reaction was stopped by adding 50 μl of the SPA beads suspension containing 10 μM 18β-glycyrrhetinic acid, 5 mg/ml protein A coated YSi SPA beads (GE Healthcare) and 3.3 μg/ml of anti-cortisol antibody (East Coast Biologics) in Superblock buffer (Bio-Rad). The plates were shaken for 120 minutes at room temperature, and the SPA signal corresponding to [^3H]cortisol was measured on a Microbeta plate reader.

T1 sequence (P28845 whole entry): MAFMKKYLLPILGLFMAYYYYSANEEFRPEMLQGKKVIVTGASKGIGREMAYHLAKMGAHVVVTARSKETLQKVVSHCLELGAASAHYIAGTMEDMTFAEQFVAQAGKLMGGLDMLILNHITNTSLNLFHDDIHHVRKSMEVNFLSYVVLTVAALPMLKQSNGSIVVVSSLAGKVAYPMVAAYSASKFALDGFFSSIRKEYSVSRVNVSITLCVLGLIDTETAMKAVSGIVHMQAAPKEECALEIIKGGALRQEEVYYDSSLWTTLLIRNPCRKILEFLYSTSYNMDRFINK

`C[C@@H](c1ccc(Br)cc1)N1CC(CCCO)(c2ccc(F)cc2)OC1=O` (single isomer, unassigned) [Example 2 Isomer 1]: the “Average % inhibition at 100 nM” value stood at 78.3% and the IC50 is under 0.1 µM.

With `C[C@@H](c1ccc(Br)cc1)N1CC(CCCO)(c2ccc(F)cc2)OC1=O` (single isomer, unassigned) [Example 2 Isomer 2], the “Average % inhibition at 100 nM” value came to 16.9% and the IC50 is over 0.1 µM.

With `C[C@@H](c1ccc(-c2ccc(F)cc2)cc1)N1CC(CCCO)(c2ccc(F)cc2)OC1=O` (single isomer, unassigned) [Example 3 Isomer 1], the “Average % inhibition at 100 nM” value turned out to be 91.4% and the IC50 is under 0.1 µM.

Consider `C[C@@H](c1ccc(-c2ccc(F)cc2)cc1)N1CC(CCCO)(c2ccc(F)cc2)OC1=O` (single isomer, unassigned) [Example 3 Isomer 2], for which the “Average % inhibition at 100 nM” value was found to be 19.1% and the IC50 was over 0.1 µM.

Take `C[C@@H](c1ccc(-c2ccn(C)c(=O)c2)cc1)N1C[C@](CC(C)(C)O)(c2ccccc2)OC1=O` (single isomer, unassigned) [Example 5 Isomer 1]: the inhibition at 0.1 µM turned out to be 51.9% and the IC50 was under 0.1 µM.

Turning to `C[C@@H](c1ccc(-c2ccn(C)c(=O)c2)cc1)N1C[C@@](CC(C)(C)O)(c2ccccc2)OC1=O` (single isomer, unassigned) [Example 5 Isomer 2], at 0.1 µM the inhibition was 3.4% and the IC50 is over 0.1 µM.

Turning to `C[C@@H](c1ccc(-c2ccn(C)c(=O)c2)cc1)N1C[C@](CCC(C)(C)O)(c2ccccc2)OC1=O` (single isomer, unassigned) [Example 6 Isomer 1], the inhibition at 0.1 µM was found to be 18.4% and the IC50 is over 0.1 µM.

As to `C[C@@H](c1ccc(-c2ccn(C)c(=O)c2)cc1)N1C[C@](CCC(C)(C)O)(c2ccccc2)OC1=O` (single isomer, unassigned) [Example 6 Isomer 2], the “Average % inhibition at 100 nM” value is reported as 19.8% and the IC50 was over 0.1 µM.

Turning to `Cc1cccc(N2CC(C)(c3ccccc3)OC2=O)c1` (stereo not drawn) [Example 7, 5-Methyl-5-phenyl-3-m-tolyloxazolidin-2-one], the inhibition at 0.1 µM worked out at 5.4% and the IC50 is over 1 µM.
